Experimental data taken from PubChem BioAssay (NCI).
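These data come from cells grown in 96-well plates and exposed to compound for 48 hours at five concentrations. GI50 is the concentration that inhibits growth by half. At the TGI there is no net growth.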

Experiments:
Experiment in all cases: NCI tumour cell line growth inhibition, 48 h
COLO 205 colon = tested on: COLO 205 colon
HT29 colon = tested on: HT29 colon
MDA-MB-231 breast = tested on: MDA-MB-231 breast
NCI-H226 lung = tested on: NCI-H226 lung
OVCAR-8 ovarian = tested on: OVCAR-8 ovarian
SK-MEL-5 melanoma = tested on: SK-MEL-5 melanoma
UACC-62 melanoma = tested on: UACC-62 melanoma
UO-31 renal = tested on: UO-31 renal

Row | SMILES | GI50 (COLO 205 colon) [µM] | TGI (COLO 205 colon) [µM] | GI50 (HT29 colon) [µM] | TGI (HT29 colon) [µM] | GI50 (MDA-MB-231 breast) [µM] | TGI (MDA-MB-231 breast) [µM] | GI50 (NCI-H226 lung) [µM] | TGI (NCI-H226 lung) [µM] | GI50 (OVCAR-8 ovarian) [µM] | TGI (OVCAR-8 ovarian) [µM] | GI50 (SK-MEL-5 melanoma) [µM] | TGI (SK-MEL-5 melanoma) [µM] | GI50 (UACC-62 melanoma) [µM] | TGI (UACC-62 melanoma) [µM] | GI50 (UO-31 renal) [µM] | TGI (UO-31 renal) [µM]
1 | COc1ccc(-c2cncn2-c2ccc(-c3nc4cc(OC)c(OC)c(OC)c4s3)cc2)cc1N | 2.94 | 20.6 | 3.87 | > 100 | > 100 | > 100 | 6.7 | > 100 | 6.19 | > 100 | 1.73 | 4.4 | 9.04 | > 100 | 1.99 | 7.57
2 | C=CC(=O)N1CCC(CNc2ncnc(N)c2-c2ccc(Oc3ccccc3)cc2)CC1 |  |  | 30.7 | > 100 | 25.5 | 89 | 19.5 | 85.1 | 27.5 | > 100 | 14.3 | 27.6 | 16 | 34.8 | 8.63 | 49.2
3 | Fc1cccc(-c2nc(-c3c[nH]c4ncccc34)cs2)c1 | > 100 | > 100 | > 100 | > 100 | 38.2 | > 100 | > 100 | > 100 | 42.4 | > 100 | > 100 | > 100 | > 100 | > 100 | 33.4 | > 100
4 | COc1ccc(C#CC2=C(Br)C(=O)OC2)cc1 | 2.56 | 29.1 | 2.42 | 10.5 | 9.48 | 27.6 | 13.3 | 34.6 | 9.47 | 39 | 7.58 | 14.3 | 6.48 | 12.8 | 16.9 | > 50
5 | Cn1c(=S)c2[nH]c(SCc3cccnc3)nc2n(C)c1=O |  | > 100 |  | > 100 |  | > 100 |  | > 100 |  | > 100 |  | > 100 |  | > 100 |  | > 100
6 | O=C1Nc2cc(-c3ccc(O)cc3)ccc2/C1=C/c1ccc[nH]1 | 2.78 | 12.5 | 0.979 | > 33.8 | 0.154 | 6.66 | 0.673 | > 100 | 0.524 | > 100 | 0.412 | > 100 | 0.049 | 10.9 | 0.13 | 2.06
7 | CN1CCN(c2ccc(NC(=O)c3cncnc3Nc3ccc4c(ccn4Cc4cccc(F)c4)c3)cc2)CC1 | 0.905 | 2.64 | 0.922 | 2.9 | 1.34 | 5.03 | 4.86 | 11.6 | 3.8 | 10.6 | 1.56 | 5.91 | 4.06 | 8.25 | 3.8 | 7.83
8 | COc1ccccc1N1CCN(CC(O)Cn2c(=O)c3c(OC)nc(C)cc3c(=O)n2-c2ccccc2)CC1 (stereo unspecified) | > 100 | > 100 | > 100 | > 100 | 24.3 | > 100 | > 100 | > 100 |  |  | 46.2 | > 100 | 64.9 | > 100 | > 100 | > 100
9 | Nc1ncc(-c2ccc3ncnc(N4CCc5cc(F)c(Cl)cc54)c3c2)cc1C(F)(F)F |  |  | 1.97 | > 100 |  |  |  |  | 2.34 | > 100 |  |  |  |  | 0.33 | > 100
10 | NC1=C(/C(N)=N/O)C(c2ccccc2)c2ccc3ccccc3c2O1 (stereo unspecified) | 0.456 | 7.26 | 1.16 | > 100 | 0.988 | 24.5 | 8.01 | 77.1 | 0.725 | > 92.9 | 0.369 | 9.79 | 0.112 | 15.2 | 0.348 | > 84.3
11 | COc1ccc(/C=C\c2cc(OC)c(OC)c(OC)c2)cc1N/C=C\C(=O)c1c[nH]c2ccccc12 | < 0.01 | < 0.01 | < 0.01 | > 100 | < 0.01 | 94.4 | 0.016 | > 100 | < 0.01 | > 100 | < 0.01 | 0.0201 | 4.38 | 64.2 | < 0.01 | > 100
12 | COC(=O)C1OC(SCCN)C(O)C(O)C1O (stereo unspecified) |  | > 100 |  | > 100 |  | > 100 |  | > 100 |  | > 100 |  | > 100 |  | > 100 |  | 
13 | Clc1ccc2c(NCCNc3nc(N4CCCCC4)nc4ccccc34)ccnc2c1 | 1.19 | 2.84 | 1.58 | 4.1 |  |  | 1.92 | 4.05 | 2.17 | 5.18 | 1.86 | 3.31 | 1.95 | 3.7 | 1.39 | 2.79
14 | O=C(O)c1ccccc1C(=O)Nc1cc2c(cc1Br)-c1ccccc1C2=O |  | > 100 |  | > 100 |  | > 100 |  |  |  | > 100 |  | > 100 |  | > 100 |  | > 100
15 | N#Cc1cc2c(=S)[nH]c(=S)[nH]c2nc1SCc1ccccc1 | 46.2 | > 100 |  |  | 21.7 | 87.4 | 24.4 | 94.3 | 58.1 | > 100 | 20.7 | 52.3 | 17 | 54.6 | 44.8 | > 100
16 | CCN(CC)CCOc1ccccc1-n1c(C)ccc1-c1ccccc1 | 9.9 | 22.5 | 6.22 | 20.8 | 6.54 | 20.7 |  |  | 16.7 | 33.4 | 12.8 | 25.9 | 15.8 | 30.6 | 10.5 | 24.4
17 | CCN1C(=O)N[C@H]2[C@@H]3NC(=O)c4ccc(Cl)n4[C@@H]3C[C@]21O | 0.369 | 1.56 | 0.968 | 10.4 | 0.822 | 7.25 | 0.543 | 5.7 | 0.533 | 9.01 | 0.228 | 0.711 |  |  | 3.19 | 24.1
18 | CCSc1nnc(-c2ccc3ccccc3c2O)n1-c1ccccc1 |  |  |  |  | > 100 | > 100 |  |  |  |  |  |  |  |  |  | 
